Numbers after ± are expanded uncertainties.
Assay: mn = molality of the nth substance listed, in mol/kg
Settings: 298.15 K, 101 kPa, Liquid, Vibrating tube method

## ClCCl [dichloromethane] + CCOS(=O)(=O)[O-].CCn1cc[n+](C)c1
m2 = 0.003931
  mass density: 1316.39 ± 10 kg/m3
m2 = 0.1352
  mass density: 1316.68 ± 10 kg/m3

Reference: the NIST ThermoML archive (doi:10.1021/je101130e)
